Source: PubChem BioAssay AID1259411 (Chemical Carcinogenesis Research Information System (CCRIS), 2018)
Calls of active or inactive are those of the source. No rule for the calls is given here.

Test system: rodent carcinogenicity bioassays, tumor incidence
Experiment: CCRIS carcinogenicity studies
Outline: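 Archive of carcinogenicity, mutagenicity, tumor promotion and tumor inhibition results drawn from journals, NCI reports and other sources, expert-reviewed; covers 1985-2011 and is no longer updated.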

Measured: carcinogen call

C=CSCCC(N)C(=O)O (stereo not drawn)
active: Species: RAT, Strain/Sex: F344/MALE, Route: INTRAPERITONEAL, Dose: 0, 50-100 MG/KG 5 D/WK FOR 12 WK, STUDY DURATION: 25 MO, Dose: 0, 50-100 MG/KG 5 D/WK FOR 12 WK, STUDY DURATION: 25 MO, Tumor Site: Type of Lesion: LIVER: HEPATOCELLULAR CARCINOMA active; positive | Species: RAT, Strain/Sex: F344/MALE, Route: ORAL, Dose: 0, 0.05% IN METHYL-DEFICIENT DIET FOR 20 MO, Tumor Site: Type of Lesion: LIVER: HEPATOCELLULAR CARCINOMA active; positive

OCC(CO)NC1CC(O)(CO)C(O)C(O)C1O (stereo not drawn)
inactive: Species: MOUSE, Strain/Sex: CD-1/FEMALE, Route: GAVAGE, Dose: 0, 15, 50, 150 MG/KG/D IN DISTILLED WATER (STUDY DURATION: 105 WK), Dose: 0, 15, 50, 150 MG/KG/D IN DISTILLED WATER (STUDY DURATION: 105 WK) inactive; negative | Species: MOUSE, Strain/Sex: CD-1/MALE, Route: GAVAGE, Dose: 0, 15, 50, 150 MG/KG/D IN DISTILLED WATER (STUDY DURATION: 105 WK), Dose: 0, 15, 50, 150 MG/KG/D IN DISTILLED WATER (STUDY DURATION: 105 WK) inactive; negative | Species: RAT, Strain/Sex: F344/FEMALE, Route: GAVAGE, Dose: 0, 3, 10, 30 MG/KG/D IN DISTILLED WATER FOR 24 MO (STUDY DURATION: 110 WK), Dose: 0, 3, 10, 30 MG/KG/D IN DISTILLED WATER FOR 24 MO (STUDY DURATION: 110 WK) inactive; negative | Species: RAT, Strain/Sex: F344/MALE, Route: GAVAGE, Dose: 0, 3, 10, 30 MG/KG/D IN DISTILLED WATER FOR 24 MO (STUDY DURATION: 110 WK), Dose: 0, 3, 10, 30 MG/KG/D IN DISTILLED WATER FOR 24 MO (STUDY DURATION: 110 WK) inactive; negative

Cc1ccc2ncccc2c1
inactive: Species: RAT, Strain/Sex: F344/MALE,FEMALE, Route: ORAL, Dose: 0.05% IN DIET FOR 2 YR inactive; negative

ClC[C@H]1O[C@@H]1Cl
active: Species: MOUSE, Strain/Sex: ICR/FEMALE, Route: DERMAL, Dose: 10 MG IN 0.1 ML ACETONE 3/WK FOR LIFE, Tumor Site: Type of Lesion: INTEGUMENTARY SYSTEM (SKIN): PAPILLOMA, SQUAMOUS CELL CARCINOMA active; positive | Species: MOUSE, Strain/Sex: ICR/FEMALE, Route: SUBCUTANEOUS, Dose: 500 UG IN 0.05 ML TRICAPRYLIN 1/WK FOR LIFE, Tumor Site: Type of Lesion: INJECTION SITE: FIBROSARCOMA active; positive

CC(=NC#N)N(C)Cc1ccc(Cl)nc1
inactive: Species: Mouse, Strain/Sex: Crl:CD-1 (ICR)BR/Female, Route: Oral, Dose: 0, 130, 400, 1200 ppm (0; 25; 76; 215 mg/kg/day) in feed for 18 mo, Dose: 0, 130, 400, 1200 ppm (0; 25; 76; 215 mg/kg/day) in feed for 18 mo inactive; negative | Species: Mouse, Strain/Sex: Crl:CD-1 (ICR)BR/Male, Route: Oral, Dose: 0, 130, 400, 1200 ppm (0; 20; 66; 186 mg/kg/day) in feed for 18 mo, Dose: 0, 130, 400, 1200 ppm (0; 20; 66; 186 mg/kg/day) in feed for 18 mo inactive; negative | Species: Rat, Strain/Sex: Crl:CD BR/Female, Route: Oral, Dose: 0, 160, 400, 1000 ppm (0; 8.8; 22.6; 60.0 mg/kg/day) in feed for 2 yr, Dose: 0, 160, 400, 1000 ppm (0; 8.8; 22.6; 60.0 mg/kg/day) in feed for 2 yr inactive; negative | Species: Rat, Strain/Sex: Crl:CD BR/Male, Route: Oral, Dose: 0, 160, 400, 1000 ppm (0; 7.1; 17.5; 46.4 mg/kg/day) in feed for 2 yr, Dose: 0, 160, 400, 1000 ppm (0; 7.1; 17.5; 46.4 mg/kg/day) in feed for 2 yr inactive; negative

CNC(=O)ON=C(SC)C(=O)N(C)C
inactive: Species: MOUSE, Strain/Sex: CD-1/FEMALE, Route: ORAL, Dose: 0, 25, 50, 75 PPM IN DIET FOR 2 YR (STUDY DURATION: 2 YR), Dose: 0, 25, 50, 75 PPM IN DIET FOR 2 YR (STUDY DURATION: 2 YR) inactive; negative | Species: MOUSE, Strain/Sex: CD-1/MALE, Route: ORAL, Dose: 0, 25, 50, 75 PPM IN DIET FOR 2 YR (STUDY DURATION: 2 YR), Dose: 0, 25, 50, 75 PPM IN DIET FOR 2 YR (STUDY DURATION: 2 YR) inactive; negative | Species: RAT, Strain/Sex: CRL:CD/FEMALE, Route: ORAL, Dose: 0, 50, 100, 150 PPM IN DIET FOR 2 YR (STUDY DURATION: 2 YR), Dose: 0, 50, 100, 150 PPM IN DIET FOR 2 YR (STUDY DURATION: 2 YR) inactive; negative | Species: RAT, Strain/Sex: CRL:CD/MALE, Route: ORAL, Dose: 0, 50, 100, 150 PPM IN DIET FOR 2 YR (STUDY DURATION: 2 YR), Dose: 0, 50, 100, 150 PPM IN DIET FOR 2 YR (STUDY DURATION: 2 YR) inactive; negative

NCCN
inactive: Species: MOUSE, Strain/Sex: C3H/MALE, Route: DERMAL, Dose: 0, 25 µL OF A 1% DEIONIZED WATER SOLUTION 3/WK FOR LIFESPAN (STUDY DURATION: LIFESPAN) inactive; negative | Species: RAT, Strain/Sex: F344/FEMALE, Route: ORAL, Dose: 0, 20, 100, 350 MG/KG/D IN DIET FOR 104 WK (STUDY DURATION: 104 WK), Dose: 0, 20, 100, 350 MG/KG/D IN DIET FOR 104 WK (STUDY DURATION: 104 WK) inactive; negative | Species: RAT, Strain/Sex: F344/MALE, Route: ORAL, Dose: 0, 20, 100, 350 MG/KG/D IN DIET FOR 104 WK (STUDY DURATION: 104 WK), Dose: 0, 20, 100, 350 MG/KG/D IN DIET FOR 104 WK (STUDY DURATION: 104 WK) inactive; negative

O=[N+]([O-])c1ccc2ccc3cccc4c5ccccc5c1c2c34
inactive: Species: MOUSE, Strain/Sex: B6C3F1/MALE, Route: INTRAPERITONEAL, Dose: 0, 400 NMOL IN 35 µL DMSO ON DAYS 1 (1/7 TOTAL DOSE), 8 (2/7 TOTAL DOSE), AND 15 (4/7 TOTAL DOSE) AFTER BIRTH (STUDY DUR inactive; negative

CN(N=O)c1ccccc1
active: Species: HAMSTER, Strain/Sex: SYRIAN/FEMALE, Route: GAVAGE, Dose: 0, 5 MG/KG 1/WK FOR 50 WK (TOTAL DOSE: 0; 1.8 MMOL) (STUDY DURATION: LIFETIME), Dose: 0, 5 MG/KG 1/WK FOR 50 WK (TOTAL DOSE: 0; 1.8 MMOL) (STUDY DURATION: LIFETIME), Tumor Site: Type of Lesion: LIVER: CHOLANGIOMA active; positive | Species: MOUSE, Strain/Sex: SWISS/MALE,FEMALE, Route: ORAL, Dose: 0.070 G/L IN DRINKING WATER FOR 28 WK, Tumor Site: Type of Lesion: LUNG: ADENOMA active; positive | Species: RAT, Strain/Sex: ALBINO/MALE,FEMALE, Route: ORAL, Dose: 2.0 MG IN 10 ML DRINKING WATER (AVE) 5/WK FOR 52 WK, Tumor Site: Type of Lesion: ESOPHAGUS: PAPILLOMA, SQUAMOUS CELL CARCINOMA, FORESTOMACH: PAPILLOMA, SQUAMOUS CELL CARCINOMA, MOUTH: PAPILLOMA, SQUAMO, Tumor Site: Type of Lesion: ESOPHAGUS: PAPILLOMA, SQUAMOUS CELL CARCINOMA, FORESTOMACH: PAPILLOMA, SQUAMOUS CELL CARCINOMA, MOUTH: PAPILLOMA, SQUAMO active; positive | Species: RAT, Strain/Sex: STRAIN-BD, Route: ORAL, Dose: 14 MG/KG/D IN DIET FOR 250 D (AVE TOTAL DOSE: 3.4 G/KG), Tumor Site: Type of Lesion: ESOPHAGUS: SQUAMOUS CELL CARCINOMA active; positive | Species: RAT, Strain/Sex: STRAIN-CB/MALE,FEMALE, Route: ORAL, Dose: 5 MG AS 0.2% FOR 7 MO THEN 2.5 MG AS 0.1% IN DRINKING WATER 1/D, 6/WK, Tumor Site: Type of Lesion: ESOPHAGUS: BENIGN TUMOR OR MALIGNANT TUMOR active; positive

CNC(=O)CSP(=S)(OC)OC
inactive: Species: MOUSE, Strain/Sex: B6C3F1/FEMALE, Route: ORAL, Dose: 0, 250, 500 PPM IN DIET, Dose: 0, 250, 500 PPM IN DIET inactive; negative | Species: MOUSE, Strain/Sex: B6C3F1/MALE, Route: ORAL, Dose: 0, 250, 500 PPM IN DIET, Dose: 0, 250, 500 PPM IN DIET inactive; negative | Species: RAT, Strain/Sex: OSBORNE-MENDEL/FEMALE, Route: ORAL, Dose: 0, 192, 384 PPM IN DIET, TWA, Dose: 0, 192, 384 PPM IN DIET, TWA inactive; negative | Species: RAT, Strain/Sex: OSBORNE-MENDEL/MALE, Route: ORAL, Dose: 0, 155, 310 PPM IN DIET, TWA inactive; negative | Species: RAT, Strain/Sex: WISTAR/FEMALE, Route: ORAL, Dose: 0, 2, 20, 200 PPM IN DIET FOR 2 YR (STUDY DURATION: 2 YR), Dose: 0, 2, 20, 200 PPM IN DIET FOR 2 YR (STUDY DURATION: 2 YR) inactive; negative | Species: RAT, Strain/Sex: WISTAR/MALE, Route: ORAL, Dose: 0, 2, 20, 200 PPM IN DIET FOR 2 YR (STUDY DURATION 2 YR), Dose: 0, 2, 20, 200 PPM IN DIET FOR 2 YR (STUDY DURATION 2 YR) inactive; negative

O=[N+]([O-])c1cccc2cccnc12
active: Species: RAT, Strain/Sex: F344/MALE,FEMALE, Route: ORAL, Dose: 0.1% IN DIET FOR 2 YR, Tumor Site: Type of Lesion: FORESTOMACH: SQUAMOUS CELL PAPILLOMA, CARCINOMA active; positive
